Measured values: ChEMBL document CHEMBL3991601, “The target landscape of clinical kinase drugs” (Science, 2017)
Activity calls are given as the source filed them.

What follows are molecules tested against Adenosine kinase (Homo sapiens, UniProt P55263).
Further: in the data inactive means no Kd found up to 30 µM.

SMILES	Kd
N[C@@H]1CCCN(c2c(/C=C3\SC(=O)NC3=O)cccc2-c2ccccc2)C1	> 30 µM (inactive)
CN1CC[C@@H](c2c(O)cc(O)c3c(=O)cc(-c4ccccc4Cl)oc23)[C@@H]1CO	> 30 µM (inactive)
CNC(=O)c1ccc(-c2cnc3ncc(Cc4ccc5ncccc5c4)n3n2)cc1F [CAPMATINIB]	> 30 µM (inactive)

What follows are molecules tested against Chromodomain-helicase-DNA-binding protein 4 (Homo sapiens, UniProt Q14839).

SMILES	Kd
N[C@@H]1CCCN(c2c(/C=C3\SC(=O)NC3=O)cccc2-c2ccccc2)C1	> 30 µM (inactive)
CN1CC[C@@H](c2c(O)cc(O)c3c(=O)cc(-c4ccccc4Cl)oc23)[C@@H]1CO	> 30 µM (inactive)

What follows are molecules tested against Ephrin type-A receptor 2 (Homo sapiens, UniProt P29317).
Ephrin type-A receptor 2, sequence (P29317 whole entry): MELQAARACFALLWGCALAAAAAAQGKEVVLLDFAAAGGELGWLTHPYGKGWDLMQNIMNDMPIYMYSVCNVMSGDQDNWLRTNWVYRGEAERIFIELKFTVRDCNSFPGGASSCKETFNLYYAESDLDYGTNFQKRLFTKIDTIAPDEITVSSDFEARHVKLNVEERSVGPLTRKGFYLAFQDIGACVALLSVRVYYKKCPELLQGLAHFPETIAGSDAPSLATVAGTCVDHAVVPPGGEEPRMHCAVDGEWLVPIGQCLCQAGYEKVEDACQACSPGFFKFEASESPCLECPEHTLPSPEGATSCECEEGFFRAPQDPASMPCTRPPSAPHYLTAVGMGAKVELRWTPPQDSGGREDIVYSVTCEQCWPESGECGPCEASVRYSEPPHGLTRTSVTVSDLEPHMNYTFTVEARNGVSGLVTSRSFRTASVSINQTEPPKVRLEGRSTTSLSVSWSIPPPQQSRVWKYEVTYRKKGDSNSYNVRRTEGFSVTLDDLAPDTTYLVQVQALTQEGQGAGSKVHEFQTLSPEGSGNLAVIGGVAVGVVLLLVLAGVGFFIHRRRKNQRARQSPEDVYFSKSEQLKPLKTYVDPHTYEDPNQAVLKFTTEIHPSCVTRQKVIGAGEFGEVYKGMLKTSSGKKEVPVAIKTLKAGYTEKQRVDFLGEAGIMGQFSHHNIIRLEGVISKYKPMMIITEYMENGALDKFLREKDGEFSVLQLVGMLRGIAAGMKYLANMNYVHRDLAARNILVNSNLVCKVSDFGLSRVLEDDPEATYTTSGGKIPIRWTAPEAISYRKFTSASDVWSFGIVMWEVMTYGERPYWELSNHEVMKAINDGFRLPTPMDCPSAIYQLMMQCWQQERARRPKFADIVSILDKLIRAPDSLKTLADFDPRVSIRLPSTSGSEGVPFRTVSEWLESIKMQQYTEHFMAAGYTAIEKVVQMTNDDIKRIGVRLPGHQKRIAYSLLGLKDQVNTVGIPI

SMILES	Kd
N[C@@H]1CCCN(c2c(/C=C3\SC(=O)NC3=O)cccc2-c2ccccc2)C1	> 30 µM (inactive)
CN1CC[C@@H](c2c(O)cc(O)c3c(=O)cc(-c4ccccc4Cl)oc23)[C@@H]1CO	> 30 µM (inactive)
CNC(=O)c1ccc(-c2cnc3ncc(Cc4ccc5ncccc5c4)n3n2)cc1F [CAPMATINIB]	> 30 µM (inactive)

These molecules were tested against T1, Electron transfer flavoprotein subunit beta (Homo sapiens, UniProt P38117).
T1 sequence (P38117 whole entry): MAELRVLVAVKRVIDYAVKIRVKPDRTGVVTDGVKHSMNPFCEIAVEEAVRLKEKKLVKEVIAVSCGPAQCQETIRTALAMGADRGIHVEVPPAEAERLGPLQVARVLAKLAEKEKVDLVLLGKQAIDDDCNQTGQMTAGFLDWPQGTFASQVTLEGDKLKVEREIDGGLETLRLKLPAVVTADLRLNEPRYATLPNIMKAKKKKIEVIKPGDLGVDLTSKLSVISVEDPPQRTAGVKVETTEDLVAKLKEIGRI

SMILES	Kd
N[C@@H]1CCCN(c2c(/C=C3\SC(=O)NC3=O)cccc2-c2ccccc2)C1	> 30 µM (inactive)
CN1CC[C@@H](c2c(O)cc(O)c3c(=O)cc(-c4ccccc4Cl)oc23)[C@@H]1CO	> 30 µM (inactive)
CNC(=O)c1ccc(-c2cnc3ncc(Cc4ccc5ncccc5c4)n3n2)cc1F [CAPMATINIB]	> 30 µM (inactive)

These molecules were tested against T2, Phenylalanine--tRNA ligase beta subunit (Homo sapiens, UniProt Q9NSD9).
T2 sequence (Q9NSD9 whole entry): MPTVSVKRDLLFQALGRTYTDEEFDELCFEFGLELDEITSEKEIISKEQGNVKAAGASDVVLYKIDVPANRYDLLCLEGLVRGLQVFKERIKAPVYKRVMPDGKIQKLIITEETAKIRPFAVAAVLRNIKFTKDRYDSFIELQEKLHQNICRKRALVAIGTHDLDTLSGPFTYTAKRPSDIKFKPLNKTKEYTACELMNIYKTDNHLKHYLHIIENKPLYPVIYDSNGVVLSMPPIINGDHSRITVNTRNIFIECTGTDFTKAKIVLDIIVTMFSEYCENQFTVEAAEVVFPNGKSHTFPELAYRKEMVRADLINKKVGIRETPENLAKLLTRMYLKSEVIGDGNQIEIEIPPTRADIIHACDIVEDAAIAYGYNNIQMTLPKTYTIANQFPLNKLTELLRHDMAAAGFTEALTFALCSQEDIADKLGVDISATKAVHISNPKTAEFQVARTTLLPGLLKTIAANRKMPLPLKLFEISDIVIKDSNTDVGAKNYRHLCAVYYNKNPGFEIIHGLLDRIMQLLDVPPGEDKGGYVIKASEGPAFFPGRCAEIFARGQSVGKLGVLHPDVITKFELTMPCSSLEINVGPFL

SMILES	Kd
N[C@@H]1CCCN(c2c(/C=C3\SC(=O)NC3=O)cccc2-c2ccccc2)C1	> 30 µM (inactive)
CN1CC[C@@H](c2c(O)cc(O)c3c(=O)cc(-c4ccccc4Cl)oc23)[C@@H]1CO	> 30 µM (inactive)
CNC(=O)c1ccc(-c2cnc3ncc(Cc4ccc5ncccc5c4)n3n2)cc1F [CAPMATINIB]	> 30 µM (inactive)

Each molecule was assayed against Putative heat shock protein HSP 90-beta 2 (Homo sapiens, UniProt Q58FF8).
Putative heat shock protein HSP 90-beta 2, sequence (Q58FF8 whole entry): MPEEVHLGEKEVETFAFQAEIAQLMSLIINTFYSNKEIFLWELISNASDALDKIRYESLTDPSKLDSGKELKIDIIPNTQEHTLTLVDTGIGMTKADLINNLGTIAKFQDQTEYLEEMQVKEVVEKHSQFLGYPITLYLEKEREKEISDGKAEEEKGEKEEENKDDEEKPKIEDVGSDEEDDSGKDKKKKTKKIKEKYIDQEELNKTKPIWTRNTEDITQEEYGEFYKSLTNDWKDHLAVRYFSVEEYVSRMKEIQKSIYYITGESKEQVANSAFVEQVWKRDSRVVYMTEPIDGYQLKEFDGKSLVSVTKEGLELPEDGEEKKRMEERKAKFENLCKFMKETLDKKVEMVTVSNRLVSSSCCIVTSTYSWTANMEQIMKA

SMILES	Kd
N[C@@H]1CCCN(c2c(/C=C3\SC(=O)NC3=O)cccc2-c2ccccc2)C1	> 30 µM (inactive)
CN1CC[C@@H](c2c(O)cc(O)c3c(=O)cc(-c4ccccc4Cl)oc23)[C@@H]1CO	> 30 µM (inactive)
CNC(=O)c1ccc(-c2cnc3ncc(Cc4ccc5ncccc5c4)n3n2)cc1F [CAPMATINIB]	> 30 µM (inactive)

These molecules were tested against Inosine-5'-monophosphate dehydrogenase 2 (Homo sapiens, UniProt P12268).

SMILES	Kd
N[C@@H]1CCCN(c2c(/C=C3\SC(=O)NC3=O)cccc2-c2ccccc2)C1	> 30 µM (inactive)
CN1CC[C@@H](c2c(O)cc(O)c3c(=O)cc(-c4ccccc4Cl)oc23)[C@@H]1CO	> 30 µM (inactive)
CNC(=O)c1ccc(-c2cnc3ncc(Cc4ccc5ncccc5c4)n3n2)cc1F [CAPMATINIB]	> 30 µM (inactive)

What follows are molecules tested against Interleukin-1 receptor-associated kinase 1 (Homo sapiens, UniProt P51617).
Interleukin-1 receptor-associated kinase 1, sequence (P51617 whole entry): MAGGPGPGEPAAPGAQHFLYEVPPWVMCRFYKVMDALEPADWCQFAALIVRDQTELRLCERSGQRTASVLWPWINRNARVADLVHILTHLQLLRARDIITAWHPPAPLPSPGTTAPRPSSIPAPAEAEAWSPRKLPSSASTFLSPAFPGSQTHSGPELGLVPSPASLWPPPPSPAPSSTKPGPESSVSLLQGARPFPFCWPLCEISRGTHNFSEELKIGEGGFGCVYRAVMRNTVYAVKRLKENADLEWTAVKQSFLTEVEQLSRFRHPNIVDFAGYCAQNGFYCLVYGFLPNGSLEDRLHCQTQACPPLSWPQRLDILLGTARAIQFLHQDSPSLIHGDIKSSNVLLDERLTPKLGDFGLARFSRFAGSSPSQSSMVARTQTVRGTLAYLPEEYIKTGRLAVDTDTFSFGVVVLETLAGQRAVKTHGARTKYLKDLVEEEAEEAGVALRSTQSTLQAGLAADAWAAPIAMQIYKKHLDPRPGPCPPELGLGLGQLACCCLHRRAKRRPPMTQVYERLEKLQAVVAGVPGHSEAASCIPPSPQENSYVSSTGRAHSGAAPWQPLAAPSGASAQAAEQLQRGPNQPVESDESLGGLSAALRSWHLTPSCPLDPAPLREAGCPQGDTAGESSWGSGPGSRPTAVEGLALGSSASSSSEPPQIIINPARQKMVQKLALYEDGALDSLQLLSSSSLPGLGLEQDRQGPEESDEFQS

SMILES	Kd
N[C@@H]1CCCN(c2c(/C=C3\SC(=O)NC3=O)cccc2-c2ccccc2)C1	> 30 µM (inactive)
CN1CC[C@@H](c2c(O)cc(O)c3c(=O)cc(-c4ccccc4Cl)oc23)[C@@H]1CO	> 30 µM (inactive)
CNC(=O)c1ccc(-c2cnc3ncc(Cc4ccc5ncccc5c4)n3n2)cc1F [CAPMATINIB]	> 30 µM (inactive)

Each molecule was assayed against Mitogen-activated protein kinase kinase kinase 4 (Homo sapiens, UniProt Q9Y6R4).
Mitogen-activated protein kinase kinase kinase 4, sequence (Q9Y6R4 whole entry): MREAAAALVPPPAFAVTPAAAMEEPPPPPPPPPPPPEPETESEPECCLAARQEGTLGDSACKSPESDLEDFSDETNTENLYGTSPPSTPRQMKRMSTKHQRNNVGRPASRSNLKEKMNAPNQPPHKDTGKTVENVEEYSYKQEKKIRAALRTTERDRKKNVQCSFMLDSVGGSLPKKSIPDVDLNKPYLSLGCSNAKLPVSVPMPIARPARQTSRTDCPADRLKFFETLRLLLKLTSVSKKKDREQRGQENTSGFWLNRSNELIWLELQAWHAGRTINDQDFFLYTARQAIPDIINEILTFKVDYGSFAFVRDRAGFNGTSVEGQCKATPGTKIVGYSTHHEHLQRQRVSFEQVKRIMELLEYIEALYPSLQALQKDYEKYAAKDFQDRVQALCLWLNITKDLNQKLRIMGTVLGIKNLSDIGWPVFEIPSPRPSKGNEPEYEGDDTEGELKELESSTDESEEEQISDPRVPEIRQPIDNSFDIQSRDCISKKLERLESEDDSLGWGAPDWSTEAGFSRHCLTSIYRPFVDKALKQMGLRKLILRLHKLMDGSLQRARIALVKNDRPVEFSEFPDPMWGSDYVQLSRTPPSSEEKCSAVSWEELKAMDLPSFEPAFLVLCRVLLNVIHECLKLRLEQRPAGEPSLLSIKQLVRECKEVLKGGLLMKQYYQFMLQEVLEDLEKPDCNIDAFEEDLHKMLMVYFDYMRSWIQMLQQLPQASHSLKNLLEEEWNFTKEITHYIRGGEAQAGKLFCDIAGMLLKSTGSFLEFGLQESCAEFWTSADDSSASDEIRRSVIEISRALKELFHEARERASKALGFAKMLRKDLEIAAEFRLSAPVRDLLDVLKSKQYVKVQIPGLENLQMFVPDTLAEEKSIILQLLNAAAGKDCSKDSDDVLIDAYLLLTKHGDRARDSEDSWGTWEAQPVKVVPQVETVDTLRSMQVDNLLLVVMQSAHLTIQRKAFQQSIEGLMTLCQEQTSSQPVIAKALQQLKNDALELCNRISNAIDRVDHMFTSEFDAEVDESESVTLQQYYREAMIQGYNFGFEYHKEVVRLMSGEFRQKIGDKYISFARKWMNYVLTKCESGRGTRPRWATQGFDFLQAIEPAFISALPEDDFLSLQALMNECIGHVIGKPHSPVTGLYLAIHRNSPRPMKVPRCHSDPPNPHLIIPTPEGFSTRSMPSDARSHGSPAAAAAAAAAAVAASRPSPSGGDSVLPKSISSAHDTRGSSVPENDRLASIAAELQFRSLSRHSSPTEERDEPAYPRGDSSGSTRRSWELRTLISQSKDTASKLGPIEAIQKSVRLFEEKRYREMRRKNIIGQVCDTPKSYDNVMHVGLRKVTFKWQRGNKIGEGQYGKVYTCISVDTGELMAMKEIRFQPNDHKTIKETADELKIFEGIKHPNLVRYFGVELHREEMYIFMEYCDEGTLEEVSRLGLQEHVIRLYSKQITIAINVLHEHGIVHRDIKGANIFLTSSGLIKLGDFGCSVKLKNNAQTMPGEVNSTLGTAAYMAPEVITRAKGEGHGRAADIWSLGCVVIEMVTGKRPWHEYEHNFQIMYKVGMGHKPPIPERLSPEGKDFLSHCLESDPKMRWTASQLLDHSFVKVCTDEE

SMILES	Kd
N[C@@H]1CCCN(c2c(/C=C3\SC(=O)NC3=O)cccc2-c2ccccc2)C1	> 30 µM (inactive)
CN1CC[C@@H](c2c(O)cc(O)c3c(=O)cc(-c4ccccc4Cl)oc23)[C@@H]1CO	> 30 µM (inactive)
CNC(=O)c1ccc(-c2cnc3ncc(Cc4ccc5ncccc5c4)n3n2)cc1F [CAPMATINIB]	> 30 µM (inactive)

The molecules below were run against Myosin-14 (Homo sapiens, UniProt Q7Z406).

SMILES	Kd
N[C@@H]1CCCN(c2c(/C=C3\SC(=O)NC3=O)cccc2-c2ccccc2)C1	> 30 µM (inactive)
CN1CC[C@@H](c2c(O)cc(O)c3c(=O)cc(-c4ccccc4Cl)oc23)[C@@H]1CO	> 30 µM (inactive)
CNC(=O)c1ccc(-c2cnc3ncc(Cc4ccc5ncccc5c4)n3n2)cc1F [CAPMATINIB]	> 30 µM (inactive)

Each molecule was assayed against Protein kinase C alpha type (Homo sapiens, UniProt P17252).

SMILES	Kd
N[C@@H]1CCCN(c2c(/C=C3\SC(=O)NC3=O)cccc2-c2ccccc2)C1	> 30 µM (inactive)
CN1CC[C@@H](c2c(O)cc(O)c3c(=O)cc(-c4ccccc4Cl)oc23)[C@@H]1CO	> 30 µM (inactive)
CNC(=O)c1ccc(-c2cnc3ncc(Cc4ccc5ncccc5c4)n3n2)cc1F [CAPMATINIB]	> 30 µM (inactive)

What follows are molecules tested against 26S proteasome regulatory subunit 6B (Homo sapiens, UniProt P43686).
26S proteasome regulatory subunit 6B, sequence (P43686 whole entry): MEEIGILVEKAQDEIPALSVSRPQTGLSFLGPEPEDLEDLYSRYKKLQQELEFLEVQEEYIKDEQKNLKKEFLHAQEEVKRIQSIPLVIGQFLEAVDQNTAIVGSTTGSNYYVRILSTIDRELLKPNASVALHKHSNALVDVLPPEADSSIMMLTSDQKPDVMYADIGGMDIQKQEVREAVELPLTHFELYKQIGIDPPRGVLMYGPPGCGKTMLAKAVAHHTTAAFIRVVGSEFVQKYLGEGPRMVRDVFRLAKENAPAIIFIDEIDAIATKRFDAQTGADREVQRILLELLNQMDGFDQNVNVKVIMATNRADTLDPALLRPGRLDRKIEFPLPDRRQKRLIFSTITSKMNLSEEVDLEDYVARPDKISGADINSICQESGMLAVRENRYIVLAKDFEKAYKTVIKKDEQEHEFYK

SMILES	Kd
N[C@@H]1CCCN(c2c(/C=C3\SC(=O)NC3=O)cccc2-c2ccccc2)C1	> 30 µM (inactive)
CN1CC[C@@H](c2c(O)cc(O)c3c(=O)cc(-c4ccccc4Cl)oc23)[C@@H]1CO	> 30 µM (inactive)
CNC(=O)c1ccc(-c2cnc3ncc(Cc4ccc5ncccc5c4)n3n2)cc1F [CAPMATINIB]	> 30 µM (inactive)

What follows are molecules tested against T3, Serine/threonine-protein kinase STK11 (Homo sapiens, UniProt Q15831).
T3 sequence (Q15831 whole entry): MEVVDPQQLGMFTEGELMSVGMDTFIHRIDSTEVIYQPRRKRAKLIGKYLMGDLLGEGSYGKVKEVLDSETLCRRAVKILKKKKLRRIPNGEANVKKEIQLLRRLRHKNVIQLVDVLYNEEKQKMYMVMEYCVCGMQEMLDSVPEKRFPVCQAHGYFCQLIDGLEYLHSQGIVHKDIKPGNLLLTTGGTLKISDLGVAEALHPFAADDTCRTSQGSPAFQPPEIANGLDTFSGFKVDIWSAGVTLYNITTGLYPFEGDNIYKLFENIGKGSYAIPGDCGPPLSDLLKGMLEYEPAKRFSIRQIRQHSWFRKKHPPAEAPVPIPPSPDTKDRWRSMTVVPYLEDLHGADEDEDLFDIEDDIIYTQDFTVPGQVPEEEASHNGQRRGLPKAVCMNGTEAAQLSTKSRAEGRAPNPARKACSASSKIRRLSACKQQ

SMILES	Kd
N[C@@H]1CCCN(c2c(/C=C3\SC(=O)NC3=O)cccc2-c2ccccc2)C1	> 30 µM (inactive)
CN1CC[C@@H](c2c(O)cc(O)c3c(=O)cc(-c4ccccc4Cl)oc23)[C@@H]1CO	> 30 µM (inactive)
CNC(=O)c1ccc(-c2cnc3ncc(Cc4ccc5ncccc5c4)n3n2)cc1F [CAPMATINIB]	> 30 µM (inactive)

What follows are molecules tested against Wee1-like protein kinase (Homo sapiens, UniProt P30291).
Wee1-like protein kinase, sequence (P30291 whole entry): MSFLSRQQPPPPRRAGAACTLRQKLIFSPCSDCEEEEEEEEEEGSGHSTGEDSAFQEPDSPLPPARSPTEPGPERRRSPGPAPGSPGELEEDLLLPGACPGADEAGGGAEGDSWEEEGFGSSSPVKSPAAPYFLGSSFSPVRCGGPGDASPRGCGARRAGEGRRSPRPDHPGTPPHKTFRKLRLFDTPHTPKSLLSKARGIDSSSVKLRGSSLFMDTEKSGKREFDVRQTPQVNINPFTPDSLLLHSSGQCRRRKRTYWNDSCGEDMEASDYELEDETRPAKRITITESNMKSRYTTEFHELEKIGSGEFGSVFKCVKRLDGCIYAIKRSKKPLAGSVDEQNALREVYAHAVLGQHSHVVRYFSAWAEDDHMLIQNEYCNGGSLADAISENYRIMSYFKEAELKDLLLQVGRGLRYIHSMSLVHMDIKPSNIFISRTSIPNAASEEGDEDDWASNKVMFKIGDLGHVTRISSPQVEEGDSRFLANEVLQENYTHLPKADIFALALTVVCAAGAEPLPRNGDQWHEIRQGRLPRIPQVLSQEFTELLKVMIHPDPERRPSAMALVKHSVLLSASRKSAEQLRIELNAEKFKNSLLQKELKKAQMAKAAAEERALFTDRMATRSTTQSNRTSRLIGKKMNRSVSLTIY

SMILES	Kd
N[C@@H]1CCCN(c2c(/C=C3\SC(=O)NC3=O)cccc2-c2ccccc2)C1	> 30 µM (inactive)
CN1CC[C@@H](c2c(O)cc(O)c3c(=O)cc(-c4ccccc4Cl)oc23)[C@@H]1CO	> 30 µM (inactive)
CNC(=O)c1ccc(-c2cnc3ncc(Cc4ccc5ncccc5c4)n3n2)cc1F [CAPMATINIB]	> 30 µM (inactive)

What follows are molecules tested against T4, Tyrosine--tRNA ligase, cytoplasmic (Homo sapiens, UniProt P54577).
T4 sequence (P54577 whole entry): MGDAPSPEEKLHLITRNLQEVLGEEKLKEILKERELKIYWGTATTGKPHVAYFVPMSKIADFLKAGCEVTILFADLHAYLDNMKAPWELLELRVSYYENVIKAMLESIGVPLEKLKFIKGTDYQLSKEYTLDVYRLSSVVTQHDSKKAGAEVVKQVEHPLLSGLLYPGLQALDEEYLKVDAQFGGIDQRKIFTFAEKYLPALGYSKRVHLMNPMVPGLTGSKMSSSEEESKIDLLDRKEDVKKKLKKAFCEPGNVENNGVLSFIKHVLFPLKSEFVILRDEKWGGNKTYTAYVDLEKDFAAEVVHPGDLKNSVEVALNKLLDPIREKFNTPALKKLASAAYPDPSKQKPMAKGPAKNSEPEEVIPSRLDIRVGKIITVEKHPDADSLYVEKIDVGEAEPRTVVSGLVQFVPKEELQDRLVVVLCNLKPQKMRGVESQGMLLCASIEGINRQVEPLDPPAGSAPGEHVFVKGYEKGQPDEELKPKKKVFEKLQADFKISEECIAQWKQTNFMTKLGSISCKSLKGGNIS

SMILES	Kd
N[C@@H]1CCCN(c2c(/C=C3\SC(=O)NC3=O)cccc2-c2ccccc2)C1	> 30 µM (inactive)
CN1CC[C@@H](c2c(O)cc(O)c3c(=O)cc(-c4ccccc4Cl)oc23)[C@@H]1CO	> 30 µM (inactive)
CNC(=O)c1ccc(-c2cnc3ncc(Cc4ccc5ncccc5c4)n3n2)cc1F [CAPMATINIB]	> 30 µM (inactive)
